Type in all cases: cell-based
For assay [1], the target named is T1, chimeric protein PPARα-Gal4 (Homo sapiens, UniProt Q07869).
T1 construct: Gal4 (fusion partner); expressed in transfected cells; host or cells: CV-1 cells (monkey kidney cells)
T1 sequence (Q07869 239-466 limits assumed): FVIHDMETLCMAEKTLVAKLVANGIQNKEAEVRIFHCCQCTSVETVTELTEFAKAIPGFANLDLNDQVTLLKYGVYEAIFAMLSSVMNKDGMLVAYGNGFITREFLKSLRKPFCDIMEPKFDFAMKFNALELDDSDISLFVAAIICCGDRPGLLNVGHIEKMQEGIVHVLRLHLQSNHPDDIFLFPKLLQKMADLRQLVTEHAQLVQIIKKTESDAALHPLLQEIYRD
Briefly: PPAR activation, Gal4 chimera luciferase reporter gene test in co-transfected CV-1 cells. Particulars: 50 μM, CV-1 cells (monkey kidney cells), 18 hours contact. On the procedure:
(§1) The measurement of the PPAR activation was performed according to a technique described by Lehmann et al. (J. Biol. Chem., 270, (1995), 12953-12956).
(§2) CV-1 cells (monkey kidney cells) are co-transfected with an expression vector for the chimeric proteins PPARα-Gal4 or PPARγ-Gal4 and with a “reporter” plasmid that allows the expression of the luciferase gene placed under the control of a promoter containing Gal4 response elements.
(§3) The cells are plated into 96-well microplates and co-transfected using a commercial reagent with the reporter plasmid (pG5-tk-pGL3) and the expression vector for the chimeric protein ([…]). After incubating for 4 hours, whole culture medium (comprising 10% foetal calf serum) is added to the wells. After 24 hours, the medium is removed and replaced with whole medium comprising the test products (50 μM final). The products are left in contact with the cells for 18 hours. The cells are then lysed and the luciferase activity is measured using a luminometer. A PPAR activation factor can then be calculated by means of activation of the expression of the reporter gene induced by the product (relative to the control cells that have not received any product).

For assay [2], the system named is chimeric protein PPARγ-Gal4. The description is as above. Particulars: 50 μM, CV-1 cells (monkey kidney cells), 18 hours contact. On the procedure:
as §1, §2, §3

Assay [3] has as its system Gal4 alone. As to the kind of experiment: Control: luciferase reporter test with vector expressing Gal4 alone (no PPAR ligand binding domain). Particulars: CV-1 cells; in the presence of the product. The method, then: CV-1 cells (monkey kidney cells) are co-transfected with an expression vector for the chimeric proteins PPARα-Gal4 or PPARγ-Gal4 and with a “reporter” plasmid that allows the expression of the luciferase gene placed under the control of a promoter containing Gal4 response elements. The cells are plated into 96-well microplates and co-transfected using a commercial reagent with the reporter plasmid (pG5-tk-pGL3) and the expression vector for the chimeric protein ([…]). After incubating for 4 hours, whole culture medium (comprising 10% foetal calf serum) is added to the wells. After 24 hours, the medium is removed and replaced with whole medium comprising the test products (50 μM final). The products are left in contact with the cells for 18 hours. The cells are then lysed and the luciferase activity is measured using a luminometer. A PPAR activation factor can then be calculated by means of activation of the expression of the reporter gene induced by the product (relative to the control cells that have not received any product). [drawing 12] at a concentration of 50 μM, activates the chimeric protein PPARα-Gal-4 by a factor of 2.3, and the chimeric protein […] by a factor of 6.4. In the absence of the binding domain for the PPAR α or γ ligand (vector expressing Gal4 alone), the luciferase activity measured in the presence of this product is zero.

As for `CCOC(=O)C(/C=C/c1ccccc1)Oc1ccccc1` (stereo not drawn), in assay [1], the “activation factor of the chimeric protein PPARα-Gal-4 (reporter gene expression relative to control cells)” value worked out at 2.3. The “activation factor of the chimeric protein PPARα-Gal4 (second mention; reporter gene expression relative to control cells)” value in assay [2] was determined as 6.4. Besides, the “luciferase activity in the absence of the binding domain for the PPAR α or γ ligand (vector expressing Gal4 alone)” value in assay [3] is listed as “zero”.

The record behind these values is patent US8247448B2, “Butenoic acid derivatives, processes for the preparation thereof, pharmaceutical compositions comprising them, and use for the treatment of dyslipidaemia, atherosclerosis and diabetes” (Merck Patent GmbH, priority 2003, dated 2012).
